Laboratory results taken from ChEMBL document CHEMBL5046241, “The novel therapeutic strategy of vilazodone-donepezil chimeras as potent triple-target ligands for the potential treatment of Alzheimer's disease with comorbid depression” (Eur J Med Chem, 2022).

Assays:
[1] = biological target: T1, 5-hydroxytryptamine receptor 1A (Homo sapiens, UniProt P08908)
T1 sequence (P08908 whole entry): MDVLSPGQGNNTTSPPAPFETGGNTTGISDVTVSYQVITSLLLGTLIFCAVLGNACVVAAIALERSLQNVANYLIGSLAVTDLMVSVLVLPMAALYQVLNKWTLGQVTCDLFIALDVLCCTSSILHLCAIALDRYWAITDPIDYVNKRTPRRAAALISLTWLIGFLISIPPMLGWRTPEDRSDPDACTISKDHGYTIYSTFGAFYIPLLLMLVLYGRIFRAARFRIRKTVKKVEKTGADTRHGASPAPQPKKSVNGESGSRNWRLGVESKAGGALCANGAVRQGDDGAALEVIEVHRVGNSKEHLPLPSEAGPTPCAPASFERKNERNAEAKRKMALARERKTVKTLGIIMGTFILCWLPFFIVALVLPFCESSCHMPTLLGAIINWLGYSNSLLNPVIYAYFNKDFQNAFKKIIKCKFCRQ
Description: Agonist activity at human 5-HT1A receptor expressed in HEK293 cells incubated for 60 mins by Eu-cAMP tracer based LANCE ultra cAMP assay

[2] = biological target: Sodium-dependent serotonin transporter (Homo sapiens, UniProt P31645); format: cell-based, HEK293
Chain of Sodium-dependent serotonin transporter (P31645 whole entry): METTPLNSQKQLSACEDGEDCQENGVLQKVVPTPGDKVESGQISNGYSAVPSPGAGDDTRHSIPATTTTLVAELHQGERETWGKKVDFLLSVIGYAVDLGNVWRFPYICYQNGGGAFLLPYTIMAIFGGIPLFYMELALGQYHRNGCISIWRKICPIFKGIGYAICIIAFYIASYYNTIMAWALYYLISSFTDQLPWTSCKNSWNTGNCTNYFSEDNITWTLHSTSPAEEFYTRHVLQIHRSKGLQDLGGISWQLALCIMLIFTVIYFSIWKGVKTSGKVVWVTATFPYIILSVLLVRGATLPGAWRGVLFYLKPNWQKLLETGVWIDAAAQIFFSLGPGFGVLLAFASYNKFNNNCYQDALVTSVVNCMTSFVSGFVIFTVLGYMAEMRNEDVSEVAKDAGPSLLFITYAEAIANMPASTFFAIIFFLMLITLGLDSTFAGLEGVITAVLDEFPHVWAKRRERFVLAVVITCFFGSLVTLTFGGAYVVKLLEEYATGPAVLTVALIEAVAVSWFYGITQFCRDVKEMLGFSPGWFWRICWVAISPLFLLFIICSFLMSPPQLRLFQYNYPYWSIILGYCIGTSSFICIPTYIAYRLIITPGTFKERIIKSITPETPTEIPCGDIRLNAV

in vitro = conditions: PAMPA
Description: Permeability of compound by PAMPA-BBB assay

Cholinesterase = Cholinesterase (Mus musculus, UniProt Q03311)
Chain of Cholinesterase (Q03311 whole entry): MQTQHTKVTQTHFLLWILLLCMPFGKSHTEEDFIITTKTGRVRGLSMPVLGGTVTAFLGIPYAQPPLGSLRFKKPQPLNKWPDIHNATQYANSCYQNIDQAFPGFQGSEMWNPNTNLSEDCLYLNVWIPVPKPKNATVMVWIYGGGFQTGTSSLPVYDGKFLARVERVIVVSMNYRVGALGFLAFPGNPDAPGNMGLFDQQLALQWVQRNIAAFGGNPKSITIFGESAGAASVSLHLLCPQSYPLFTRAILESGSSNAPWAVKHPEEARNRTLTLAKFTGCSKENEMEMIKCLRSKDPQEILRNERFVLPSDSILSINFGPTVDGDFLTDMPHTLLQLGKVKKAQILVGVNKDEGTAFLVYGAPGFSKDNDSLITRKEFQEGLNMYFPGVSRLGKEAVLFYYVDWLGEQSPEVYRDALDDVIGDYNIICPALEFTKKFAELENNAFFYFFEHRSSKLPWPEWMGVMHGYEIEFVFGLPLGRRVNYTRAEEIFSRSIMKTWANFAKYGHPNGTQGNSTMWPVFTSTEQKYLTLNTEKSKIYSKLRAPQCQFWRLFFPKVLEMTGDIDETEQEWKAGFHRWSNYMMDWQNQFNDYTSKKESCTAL
Description: Inhibition of BuChE in mouse serum using butyrylthiocholine iodide as substrate incubated for 20 mins by Ellman's method

Acetylcholinesterase = biological target: T2, Acetylcholinesterase (Mus musculus, UniProt P21836); assay: biochemical
T2 sequence (P21836 whole entry): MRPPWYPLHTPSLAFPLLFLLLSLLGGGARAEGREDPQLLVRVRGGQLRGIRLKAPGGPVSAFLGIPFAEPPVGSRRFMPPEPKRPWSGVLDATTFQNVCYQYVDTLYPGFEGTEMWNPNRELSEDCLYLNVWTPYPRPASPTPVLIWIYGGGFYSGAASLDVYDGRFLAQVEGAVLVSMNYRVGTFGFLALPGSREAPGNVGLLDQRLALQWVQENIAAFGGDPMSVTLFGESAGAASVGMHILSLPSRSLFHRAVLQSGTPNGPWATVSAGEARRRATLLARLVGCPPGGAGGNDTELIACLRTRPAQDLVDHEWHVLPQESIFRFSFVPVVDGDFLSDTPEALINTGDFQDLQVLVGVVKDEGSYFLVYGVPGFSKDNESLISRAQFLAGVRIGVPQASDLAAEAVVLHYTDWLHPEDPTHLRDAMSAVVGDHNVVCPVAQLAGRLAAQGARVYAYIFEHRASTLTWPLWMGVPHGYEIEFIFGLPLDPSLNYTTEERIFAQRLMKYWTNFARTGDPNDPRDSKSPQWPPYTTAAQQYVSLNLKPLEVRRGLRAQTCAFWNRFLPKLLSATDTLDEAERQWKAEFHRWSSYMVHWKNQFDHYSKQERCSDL
Description: Inhibition of AChE in mouse cortical homogenate using acetylthiocholine iodide as substrate incubated for 20 mins by Ellman's method

| SMILES | EC50 [1] | IC50 [2] | Papp (in vitro) | IC50 (Cholinesterase) | IC50 (Acetylcholinesterase) |
| --- | --- | --- | --- | --- | --- |
| Cc1ccc2[nH]cc(CCCCN3CCN(c4ccc(C(=O)CCC5CCN(Cc6ccccc6)CC5)cc4)CC3)c2c1 | 279 nM | > 1000 nM | 2.5 ×10⁻⁶ cm/s | 1200 nM | 2.28 nM |
| N#Cc1ccc2[nH]cc(CCN3CCN(c4ccc(C(=O)CCC5CCN(Cc6ccccc6)CC5)cc4)CC3)c2c1 |  | 32.3 nM |  | 3000 nM | 5.04 nM |
| C#CCN1CCC(CCC(=O)c2ccc(N3CCN(CCCCc4c[nH]c5ccc(C#N)cc45)CC3)cc2)CC1 | 29 nM |  |  |  | 1140 nM |
| N#Cc1ccc2[nH]cc(CCCCN3CCN(c4ccc(C(=O)CCC5CCN(Cc6cccc(F)c6)CC5)cc4)CC3)c2c1 |  |  |  | 11300 nM | 10.9 nM |
| CCCCN1CCC(CCC(=O)c2ccc(N3CCN(CCCCc4c[nH]c5ccc(C#N)cc45)CC3)cc2)CC1 |  |  |  | 1910 nM | 124 nM |
| O=C(CCC1CCN(Cc2ccccc2)CC1)c1ccc(N2CCN(CCCCc3c[nH]c4ccc(Br)cc34)CC2)cc1 |  |  |  | 3840 nM | 7.75 nM |
| N#Cc1ccc2[nH]cc(CCN3CCN(c4ccc(C(=O)CCC5CCN(Cc6ccsc6)CC5)cc4)CC3)c2c1 | > 1000 nM | 33.5 nM | 4.77 ×10⁻⁶ cm/s | 1860 nM | 2.56 nM |
| N#Cc1ccc2[nH]cc(CCCCN3CCN(c4ccc5c(c4)C(=O)C(CC4CCN(Cc6ccccc6)CC4)C5)CC3)c2c1 (stereo not drawn) |  |  |  | 325 nM | 37.4 nM |
| N#Cc1ccc2[nH]cc(CCCCN3CCN(c4ccc5c(c4)C/C(=C\C4CCN(Cc6ccccc6)CC4)C5=O)CC3)c2c1 |  |  |  | 4950 nM | 30.7 nM |
| N#Cc1ccc2[nH]cc(CCCN3CCN(c4ccc(C(=O)CCC5CCN(Cc6cc[nH]c6)CC5)cc4)CC3)c2c1 |  | 14.9 nM |  | 1130 nM | 3.27 nM |
| COc1cccc(CN2CCC(CCC(=O)c3ccc(N4CCN(CCCCc5c[nH]c6ccc(C#N)cc56)CC4)cc3)CC2)c1 |  |  |  |  | 644 nM |
| N#Cc1ccc2[nH]cc(CCCCN3CCN(c4ccc(C(=O)CCC5CCN(Cc6ccccc6F)CC5)cc4)CC3)c2c1 |  |  |  | 2510 nM | 12 nM |
| N#Cc1ccc2[nH]cc(CCCCN3CCN(c4ccc(C(=O)CCC5CCN(Cc6ccoc6)CC5)cc4)CC3)c2c1 | 19 nM | 35.7 nM | 4.68 ×10⁻⁶ cm/s | 2730 nM | 8.95 nM |
| N#Cc1ccc2[nH]cc(CCN3CCN(c4ccc(C(=O)CCC5CCN(Cc6ccoc6)CC5)cc4)CC3)c2c1 |  |  |  | 2840 nM | 12.3 nM |
| COc1ccc2[nH]cc(CCCCN3CCN(c4ccc(C(=O)CCC5CCN(Cc6ccccc6)CC5)cc4)CC3)c2c1 |  | 76.5 nM |  | 687 nM | 2.42 nM |
| O=C(CCC1CCN(Cc2ccccc2)CC1)c1ccc(N2CCN(CCCCc3c[nH]c4cc(Cl)c(Cl)cc34)CC2)cc1 | > 1000 nM |  |  | 5810 nM | 11.2 nM |
| N#Cc1ccc2[nH]cc(CCCN3CCN(c4ccc(C(=O)CCC5CCN(Cc6ccccc6)CC5)cc4)CC3)c2c1 | 65.5 nM | 39.9 nM | 4.38 ×10⁻⁶ cm/s | 1490 nM | 2.18 nM |
| C=CCN1CCC(CCC(=O)c2ccc(N3CCN(CCCCc4c[nH]c5ccc(C#N)cc45)CC3)cc2)CC1 | 8.6 nM |  |  | 1660 nM | 267 nM |
| N#Cc1ccc2[nH]cc(CCCCN3CCN(c4ccc(C(=O)CCC5CCN(CC6CCCC6)CC5)cc4)CC3)c2c1 | 49.8 nM |  |  | 1760 nM | 40.4 nM |
| N#Cc1ccc2[nH]cc(CCCCN3CCN(c4ccc(C(=O)CCC5CCN(Cc6ccc(F)cc6)CC5)cc4)CC3)c2c1 | 162 nM |  |  | 2680 nM | 32.4 nM |
| N#Cc1ccc2[nH]cc(CCN3CCN(c4ccc(C(=O)CCC5CCN(Cc6cc[nH]c6)CC5)cc4)CC3)c2c1 | > 1000 nM | 8.41 nM | 3.15 ×10⁻⁶ cm/s | 3570 nM | 3.54 nM |
| N#Cc1ccc2[nH]cc(CCN3CCN(c4ccc5c(c4)CC(CC4CCN(Cc6ccccc6)CC4)C5=O)CC3)c2c1 (stereo not drawn) | > 1000 nM | 8.81 nM | 4.16 ×10⁻⁶ cm/s | 638 nM | 8.7 nM |
| N#Cc1ccc2[nH]cc(CCCCN3CCN(c4ccc(C(=O)CCC5CCN(Cc6cccnc6)CC5)cc4)CC3)c2c1 | 22 nM | 16.2 nM | 4.43 ×10⁻⁶ cm/s | 4590 nM | 7.98 nM |
| N#Cc1ccc2[nH]cc(CCCCN3CCN(c4ccc(C(=O)CCC5CCN(Cc6cccc(Cl)c6)CC5)cc4)CC3)c2c1 | 203 nM |  |  | 15300 nM | 27 nM |

| SMILES | EC50 [1] | IC50 [2] | Papp (in vitro) | IC50 (Cholinesterase) | IC50 (Acetylcholinesterase) |
| --- | --- | --- | --- | --- | --- |
| N#Cc1ccc2[nH]cc(CCCCN3CCN(c4cccc5c4C(=O)C(CC4CCN(Cc6ccccc6)CC4)C5)CC3)c2c1 (stereo not drawn) | 36 nM |  |  | 183 nM | 709 nM |
| N#Cc1ccc2[nH]cc(CN3CCN(c4ccc(C(=O)CCC5CCN(Cc6ccoc6)CC5)cc4)CC3)c2c1 | > 1000 nM |  | 5.56 ×10⁻⁶ cm/s | 1400 nM | 10.6 nM |
| O=C(CCC1CCN(Cc2ccccc2)CC1)c1ccc(N2CCN(CCCCc3c[nH]c4ccc(F)cc34)CC2)cc1 |  | 114 nM |  | 1470 nM | 2.43 nM |
| N#Cc1ccc2[nH]cc(CCCCN3CCN(c4ccc(C(=O)CCC5CCN(CC6CCC6)CC5)cc4)CC3)c2c1 |  |  |  | 1320 nM | 249 nM |
| N#Cc1ccc2[nH]cc(CCCCN3CCN(c4ccccc4C(=O)CCC4CCN(Cc5ccccc5)CC4)CC3)c2c1 |  |  |  | 351 nM | 2520 nM |
| COC(=O)c1ccc2[nH]cc(CCCCN3CCN(c4ccc(C(=O)CCC5CCN(Cc6ccccc6)CC5)cc4)CC3)c2c1 |  | > 1000 nM |  | 336 nM | 3.28 nM |
| N#Cc1ccc2[nH]cc(CN3CCN(c4ccc(C(=O)CCC5CCN(Cc6cccnc6)CC5)cc4)CC3)c2c1 | > 1000 nM |  | 2.86 ×10⁻⁶ cm/s | 5850 nM | 9.97 nM |
| N#Cc1ccc2[nH]cc(CCCCN3CCN(c4ccc(C(=O)CCC5CCN(Cc6cccc(Br)c6)CC5)cc4)CC3)c2c1 |  |  |  |  | 91.5 nM |
| CCN1CCC(CCC(=O)c2ccc(N3CCN(CCCCc4c[nH]c5ccc(C#N)cc45)CC3)cc2)CC1 | 9 nM |  |  | 2380 nM | 393 nM |
| N#Cc1ccc2[nH]cc(CCN3CCN(c4ccc(C(=O)CCC5CCN(Cc6cccnc6)CC5)cc4)CC3)c2c1 | 547 nM |  | 2.58 ×10⁻⁶ cm/s | 6750 nM | 7.7 nM |
| Cc1cccc(CN2CCC(CCC(=O)c3ccc(N4CCN(CCCCc5c[nH]c6ccc(C#N)cc56)CC4)cc3)CC2)c1 |  |  |  | 13400 nM | 18.3 nM |
| N#Cc1ccc2[nH]cc(CCCN3CCN(c4ccc(C(=O)CCC5CCN(Cc6ccsc6)CC5)cc4)CC3)c2c1 |  | 41.1 nM |  | 1200 nM | 1.85 nM |
| N#Cc1ccc2[nH]cc(CCCCN3CCN(c4ccc(C(=O)CCC5CCN(CC6CC6)CC5)cc4)CC3)c2c1 | 9.1 nM |  |  | 743 nM | 366 nM |
| N#Cc1ccc2[nH]cc(CCCCN3CCN(c4cccc(C(=O)CCC5CCN(Cc6ccccc6)CC5)c4)CC3)c2c1 |  |  |  | 1000 nM | 37.9 nM |
| N#Cc1ccc2c(CCCCN3CCN(c4ccc(C(=O)CCC5CCN(Cc6ccccc6)CC5)cc4)CC3)c[nH]c2c1 | > 1000 nM |  |  | 2640 nM | 3.71 nM |
| N#Cc1ccc2[nH]cc(CCCCN3CCN(c4ccc5c(c4)CC(CC4CCN(Cc6ccccc6)CC4)C5=O)CC3)c2c1 (stereo not drawn) |  | 36 nM |  | 1670 nM | 5.84 nM |
| N#Cc1ccc2[nH]cc(CCCN3CCN(c4ccc(C(=O)CCC5CCN(Cc6ccoc6)CC5)cc4)CC3)c2c1 | 29 nM |  | 5.17 ×10⁻⁶ cm/s | 1340 nM | 9.61 nM |
| O=C(CCC1CCN(Cc2ccccc2)CC1)c1ccc(N2CCN(CCCCc3c[nH]c4ccc(Cl)cc34)CC2)cc1 |  | 159 nM |  | 2720 nM | 3.52 nM |
| N#Cc1ccc2[nH]cc(CCCN3CCN(c4ccc(C(=O)CCC5CCN(Cc6cccnc6)CC5)cc4)CC3)c2c1 |  |  |  | 2010 nM | 6.41 nM |
| N#Cc1ccc2[nH]cc(CCCCN3CCN(c4ccc(C(=O)CCC5CCN(CC6CCCCC6)CC5)cc4)CC3)c2c1 |  |  |  | 2830 nM | 76.5 nM |
| O=C(CCC1CCN(Cc2ccccc2)CC1)c1ccc(N2CCN(CCCCc3c[nH]c4ccccc34)CC2)cc1 |  | 285 nM |  | 986 nM | 1.51 nM |
| N#Cc1ccc2[nH]cc(CCCCN3CCN(c4ccc(C(=O)CCC5CCN(Cc6ccc7ccccc7c6)CC5)cc4)CC3)c2c1 | > 1000 nM |  |  |  |  |
| N#Cc1ccc2[nH]cc(CCCCN3CCN(c4ccc(C(=O)CCC5CCN(Cc6cccc(C(F)(F)F)c6)CC5)cc4)CC3)c2c1 | 323 nM |  |  |  | 294 nM |
